In patent US20210261636A1, “NEOANTIGENS EXPRESSED IN MULTIPLE MYELOMA AND THEIR USES” (Janssen Biotech, Inc., priority 2020, published 2021):

Columns and labels:
CD8+ T cells = assay: Exogenous autologous healthy donor restimulation assay, TNFα and IFNγ production by CD8+ T cells; assay type: cell-based, human; set-up: Frequency (TNFα+ IFNγ+ CD8 T cells): unit not given here; settings: for Fold change (CD8+) vs. DMSO: maximum CD8+ T-cell response (TNFα and IFNγ); for Fold change (CD8+) vs. DMSO / Frequency (TNFα+ IFNγ+ CD8 T cells): donor independent, peptide pool 10 μg/mL, healthy donors; for Frequency (TNFα+ IFNγ+ CD8 T cells): maximum CD8+ T-cell response; for Immunogenic (yes/no): positive if CD8+ and/or CD4+ double positive TNFα/IFNγ frequency >=3-fold over DMSO and at least 0.01%
Procedure: (§1) Immunogenicity responses were measured by estimating TNFα IFNγ double positive cells in the CD4+ and/or CD8+ T-cell populations. A response is considered positive if TNFα IFNγ double positive fraction was greater than or equal to three-fold over unstimulated cells (DMSO negative control) with a minimum frequency >=0.01%. […]
(§2) Overlapping 15-mer peptides were designed to span each indicated neoantigen. Their ability to activate T cells was assessed using known methods, such as the assay defnied as exogenous autologous normal donor restimulation assay. The peptides were used as pools using TNFα and IFNγ production by CD8^+ and CD4^+ T cells as a readout. Maximum frequency of CD8^+TNFα^+IFNγ^+ and CD4^+TNFα^+IFNγ^+ T cells and maximum fold change over background for each pool of peptides were analyzed, which were calculated as the highest frequency of CD8^+ TNFα^+IFNγ^+ and CD4^+ TNFα^+IFNγ^+ T cells and resulting fold change across the normal donors evaluated for the peptide.
(§3) CD1c+Dendritic Cells (CD1c+DC) isolated from human healthy PBMCs were thawed using media (IMDM (Gibco) supplemented with glutamine, HEPES, 5% human serum (Sigma), and 1× Pen-Strep). DC cells were resuspended in media supplemented with IL-4 (Peprotech, 20 ng/mL) and GM-CSF (Gibco, 20 ng/mL), plated in 6 well microplates, and rested overnight at 37° C. and 5% CO2 incubator. The following day, DC cells were counted and plated in a 96 well round bottom microplate at a concentration of 30,000 viable cells per well. Lyophilized neoantigen peptide pools (15-mer peptides with 8-mer overlapping peptide sequences) were solubilized in 100% DMSO with a stock concentration of 20 mg/mL Neoantigen peptides pools were added to DCs for a final concentration of 10 μg/mL and rested for 2 hours at 37° C. and 5% CO2 incubator. CEF Peptide Pool “Plus” (Cellular Technologies, Ltd.) was utilized as a positive control (each viral peptide at a final concentration of 4 ug/ml) and DMSO at the same final concentration (0.05%) as the experimental peptides was utilized as a negative control. After 2 hours, DC cells were irradiated with 50 gray of ionizing radiation. Autologous CD3+ Pan-T cells isolated from human normal PBMCs were thawed using media. Following irradiation, autologous Pan-T cells were added to the irradiated DCs at 300,000 viable cells per well. Human IL-15 (Peprotech) was added to all wells at final concentration of 10 ng/ml. Plates were incubated at 37° C. and 5% CO2 incubator for a total of 12 days. Media was refreshed every 2-3 days with IL-15 (R&D System, 10 ng/mL final concentration) and IL-2 (R&D systems, 10 IU/mL final concentration).
(§4) On Day 11, cells were re-stimulated with identical experimental peptide pools or controls, at same concentration as peptide stimulation on Day 1. Protein Inhibitor Cocktail (eBioscience) was added to every well and plate was incubated overnight for 14-16 hours at 37° C. and 5% CO2 incubator. On Day 12, cells were stained for surface and intracellular flow cytometry analysis. The cells were washed with PBS and stained with Live/Dead Fixable Aqua Dead Cell stain (Thermo-Fisher). Following the live/dead stain, cells were blocked using Biotin-Free Fc Receptor Blocker (Accurate Chemical & Scientific Corp). Extracellular cellular flow panel (1 μL/antibody per well in 50 μL) consisted of CD3 PerCP-Cy5.5 (Biolegend), CD4 BV421 (Biolegend), and CD8 APC-Cy7 (Biolegend). After extracellular staining, cells were fixed and permeabilized using Foxp3/Transcription Factor Staining Buffer Set (eBioscience) and stained for intracellular proteins (1:50 dilution) using TNFα FITC (R&D Systems) and IFNγ BV785 (Biolegend). Cells were washed and resuspended in stain buffer, analyzed, and recorded in a BD Celesta flow cytometer.
(§5) Flow cytometry analysis was conducted on FlowJo v10.6 software. Cells were gated on live, singlet, CD3+, CD4+ and CD8+ T cells. The CD8+ and CD4+ T cells were analyzed for TNFα and IFNγ expression. […]

CD4+ T cells = assay: Exogenous autologous healthy donor restimulation assay, TNFα and IFNγ production by CD4+ T cells; assay type: cell-based, human; set-up: Frequency (TNFα+ IFNγ+ CD4 T cells): unit not given here; settings: donor independent, peptide pool 10 μg/mL, healthy donors; for Fold change (CD4+) vs. DMSO: maximum CD4+ T-cell response (TNFα and IFNγ); for Frequency (TNFα+ IFNγ+ CD4 T cells): maximum CD4+ T-cell response
Procedure: as §1, §2, §3, §4, §5

Row | Sequence | Fold change (CD8+) vs. DMSO (CD8+ T cells) | Frequency (TNFα+ IFNγ+ CD8 T cells) (CD8+ T cells) | Immunogenic (yes/no) (CD8+ T cells) | Fold change (CD4+) vs. DMSO (CD4+ T cells) | Frequency (TNFα+ IFNγ+ CD4 T cells) (CD4+ T cells)
1 | GEPGEDAGIGRPEEREREEEMADQ [AS135, alternative splicing, ZBP1] | 2.68 | 0.092 | No | 3.73 | 0.03
2 | PPGGHSPQDLSIREIFCLGHKEVC [AS136, alternative splicing, ZNF592] | 5.91 | 0.072 | Yes | 10.86 | 0.07
3 | ERSHSKKKDGLVRNDGPGFPPMFSTSENTNLD [AS54, alternative splicing, SETBP1] | 0.73 | 0.008 | Yes | 90.535 | 0.033
4 | ACGACGAGFFIKQKCIEQRESRSLS [FUS22, gene fusion IGLL5-> COMMD3-BMI1, BMI1] | 89.07 | 0.11 | Yes | 0.86 | 0.006
5 | TAILFTRQQSKALPSLGITNRHGFWAGQGNTVMHGRDSDGKQVKGTVVILAQGAFHQ [AS109, alternative splicing, ADAMTS15] | 4.15 | 0.019 | Yes | 42.23 | 0.064
6 | LGRLEEAKVPLKMLLF [AS122, alternative splicing, OGT] | 3.63 | 0.044 | Yes | 13.71 | 0.048
7 | LVARPEIQIFMEEDVMKVE [AS124, alternative splicing, PDZRN4] | 5.27 | 0.089 | Yes | 7.31 | 0.064
8 | CKVCQNCKNPKMARAS [AS23, alternative splicing, KMT2C] | 3.05 | 0.065 | Yes | 18 | 0.063
9 | SEMVAHERYVFEATGNDSFRTLCLLMK [AS112, alternative splicing, CFAP54] | 35.03 | 0.062 | Yes | 7.92 | 0.012
10 | QILEQPKQVRLKGWDFKC [AS68, alternative splicing, NFKB1] | 4 | 0.022 | Yes | 21.77 | 0.033
11 | FSMRPAFGETALGCKKW [AS19, alternative splicing, GABRR2] | 140 | 0.031 | Yes | 23.16 | 0.12
12 | PRDNHTDHENPRGSDGQGRWKCPSQVTYIRRTLM [FUS16, gene fusion UBE2J1-> GABRR2] | 8.86 | 0.12 | Yes | 4.388 | 0.027
13 | LTALLLLASTPTP [AS18, alternative splicing, FCRLB] | 7.33 | 0.082 | Yes | 12.922 | 0.006
14 | LDQCVETLCSLSKSD [FUS44, gene fusion ZGPAT-> LIME1] | 4.82 | 0.097 | Yes | 4.8 | 0.024
15 | MEPTTKRGPGGTMVSAAAPS [FUS52, gene fusion SELPLG-> TMEM119] | 46.95 | 2.09 | Yes | 6.831 | 0.02
16 | IMLIGNKSNCQKQLLRDMKILNEFYHGLILTLQLS [AS126, alternative splicing, RAB2B] | 161.72 | 0.49 | Yes | 6.861 | 0.04
17 | AFIYHAFVGSTKTAWRTTL [FUS13, gene fusion KCNQ5-> KCNQ5-IT1] | 3.96 | 0.033 | Yes | 8.79 | 0.057
18 | YECTGCKTSFPHRSQS [FUS46, gene fusion GCNA-> LOC101059915] | 143.71 | 1.33 | Yes | 9.3 | 0.017
19 | LDPPHDEKALACPQWTLLWIFWTAKAL [AS95, alternative splicing, WDR64] | 1.58 | 0.13 | Yes | 19.58 | 0.014
20 | PQEEVPFRSITTELFPSMC [FUS27, gene fusion TBCEL-> TECTA] | 3.38 | 0.009 | Yes | 3.3 | 0.038
